Laboratory results from patent US20170050957A1, “4-AMINO-6-(HETEROCYCLIC)PICOLINATES AND 6-AMINO-2-(HETEROCYCLIC)PYRIMIDINE-4-CARBOXYLATES AND THEIR USE AS HERBICIDES” (Dow AgroSciences LLC, priority 2013, published 2017).
Like-named read-outs stand apart in the source and are kept apart here.

Assays:
[1] = tested on: Key Grass and Sedge Weeds as well as Grass Crops; test: Post-emergent Test II herbicidal activity (Table 16); type: in vivo; conditions: post-emergence, 336 h, 14 d; for pest or weed control at 35 g/ha: 35 g ai/ha; for pest or weed control at 70 g/ha: 70 g ai/ha; for pest or weed control at 140 g/ha: 140 g ai/ha
In short: (§1)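 Greenhouse-grown seedlings at first/second true leaf receive a track spray at 187 L/ha, using a highest rate plus two-fold serial dilutions down to 1/16×. Watering is by subirrigation to avoid wash-off. Percent injury (0-100) is judged by eye at 14 d against untreated plants.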

[2] = tested on: Key Broadleaf Weed and Crop Species; test: Post-emergent Test II herbicidal activity (Table 15); type: in vivo; conditions: post-emergence, 336 h, 14 d; for pest or weed control at 35 g/ha: 35 g ai/ha; for pest or weed control at 70 g/ha: 70 g ai/ha; for pest or weed control at 140 g/ha: 140 g ai/ha
In short: as §1

[3] = Cyperus esculentus, yellow nutsedge (Cyperus esculentus), read-out: Visual Growth Reduction (%) 14 Days After Application, CYPES
[4] = Echinochloa crus-galli, barnyardgrass (Echinochloa crus-galli), read-out: Visual Growth Reduction (%) 14 Days After Application, ECHCG
[5] = Oryza sativa, rice (Oryza sativa), read-out: Visual Growth Reduction (%) 14 Days After Application, ORYSA
[6] = Setaria faberi, giant foxtail (Setaria faberi), read-out: Visual Growth Reduction (%) 14 Days After Application, SETFA
[7] = Triticum aestivum, wheat, spring (Triticum aestivum), read-out: Visual Growth Reduction (%) 14 Days After Application, TRZAS
[8] = Zea mays, maize, corn (Zea mays), read-out: Visual Growth Reduction (%) 14 Days After Application, ZEAMX
[9] = Abutilon theophrasti, velvetleaf (Abutilon theophrasti), read-out: Visual Growth Reduction (%) 14 Days After Application, ABUTH
[10] = Amaranthus retroflexus, redroot pigweed (Amaranthus retroflexus), read-out: Visual Growth Reduction (%) 14 Days After Application, AMARE
[11] = Brassica napus, oilseed rape, canola (Brassica napus), read-out: Visual Growth Reduction (%) 14 Days After Application, BRSNN
[12] = Chenopodium album, lambsquarters (Chenopodium album), read-out: Visual Growth Reduction (%) 14 Days After Application, CHEAL
[13] = Euphorbia heterophylla, wild poinsettia (Euphorbia heterophylla), read-out: Visual Growth Reduction (%) 14 Days After Application, EPHHL
[14] = Helianthus annuus, sunflower (Helianthus annuus), read-out: Visual Growth Reduction (%) 14 Days After Application, HELAN

Nc1c(F)c(-c2ccc3[nH]ccc3c2)nc(C(=O)O)c1Cl [Compound 1.04]
0 to 29%: pest or weed control at 35 g/ha [1, 3] | pest or weed control at 70 g/ha [1, 3] | pest or weed control at 140 g/ha [1, 3] | pest or weed control at 35 g/ha [1, 4] | pest or weed control at 35 g/ha [1, 5] | pest or weed control at 70 g/ha [1, 5] | pest or weed control at 140 g/ha [1, 5] | pest or weed control at 35 g/ha [1, 6] | pest or weed control at 70 g/ha [1, 6] | pest or weed control at 140 g/ha [1, 6] | pest or weed control at 35 g/ha [1, 7] | pest or weed control at 70 g/ha [1, 7] | pest or weed control at 140 g/ha [1, 7] | pest or weed control at 35 g/ha [1, 8] | pest or weed control at 70 g/ha [1, 8] | pest or weed control at 140 g/ha [1, 8] | pest or weed control at 70 g/ha [2, 9] | pest or weed control at 140 g/ha [2, 9]
30 to 44%: pest or weed control at 35 g/ha [2, 11]
60 to 74%: pest or weed control at 35 g/ha [2, 10] | pest or weed control at 70 g/ha [2, 10] | pest or weed control at 140 g/ha [2, 10] | pest or weed control at 70 g/ha [2, 12] | pest or weed control at 140 g/ha [2, 12]
45 to 59%: pest or weed control at 35 g/ha [2, 9] | pest or weed control at 70 g/ha [2, 11] | pest or weed control at 140 g/ha [2, 11] | pest or weed control at 35 g/ha [2, 12] | pest or weed control at 35 g/ha [2, 14] | pest or weed control at 70 g/ha [2, 14]
85 to 94%: pest or weed control at 140 g/ha [1, 4] | pest or weed control at 140 g/ha [2, 14]
95 to 100%: pest or weed control at 35 g/ha [2, 13] | pest or weed control at 70 g/ha [2, 13] | pest or weed control at 140 g/ha [2, 13]
180 to 182 °C: melting point
